In patent US20260242395A1, “AMINOHETEROARYL KINASE INHIBITORS” (ALLORION THERAPEUTICS INC, priority 2022, published 2026):

How the values were obtained:
Type in all cases: biochemical
CDK1/CyclinB = molecular target: T1, CDK1/CyclinB (Homo sapiens, UniProt P06493); experiment: CDK1/CyclinB kinase inhibitory activity (Caliper mobility shift); details: enzyme 3 nM, ATP 20 μM, 28° C. 30 min; read-out: CDK1/Cyclin B1 IC50
T1 construct: purchased Millipore 14-450M
Description: CDK1/CyclinB kinase inhibitory activity (IC50): 5 μl of various dilutions of test compound in 1× kinase buffer (50 mM HEPES pH 7.5, 10 mM MgCl2, 2 mM DTT and 0.01% Brij-35) was mixed with 10 μL of CDK1/CyclinB (Millipore, 14-450M #, final concentration 3 nM in 1× Kinase buffer) in 384 plates and incubated at room temperature for 10 min. To initiate each reaction, 10 μL of peptide solution containing fluorescently-labeled-peptide 18(5-FAM-QSPKKG-CONH2) (GL, 114202 #, final concentration 3000 nM) and ATP (final concentration 20 μM) in 1× Kinase buffer was added to each of the wells containing test compound and CDK1/CyclinB mixture. The reaction is then allowed to proceed at 28° C. for 30 min and terminated by the addition of 25 μL stop buffer (100 mM HEPES pH 7.5, 50 mM EDTA, 0.2% Coating Reagent #3 (Perkin Elmer, 760050 #) and 0.015% Brij-35).
(§1) Following the kinase reaction, Caliper EZ reader II (Downstream voltages: −500V, Upstream voltages: −2250V, Base pressure −0.5 PSI, Screen pressure −1.2 PSI) was used to separate the phosphorylated (product) and the unphosphorylated (substrate) fluorescently-labeled peptide 18 based on their different mobility. Both substrate and product were measured and the ratio of these values were used to generate % conversion by Caliper EZ reader II. These conversion values were then transformed into % inhibition of kinase activity using the formula: % Inhibition=[(MA−X)/(MA−MI)]×100% where MA=conversion value of DMSO only controls, MI=conversion value of no enzyme controls and X=conversion value at any given compound dose. IC50 values were then calculated by plotting dose-response curves and then using the XLfit application in Excel software.

CDK7/CyclinH/MAT1 = molecular target: T2, CDK7/CyclinH/MAT1 (Homo sapiens, UniProt P50613); experiment: CDK7/CyclinH/MAT1 kinase inhibitory activity (Caliper mobility shift); details: enzyme 12.5 nM, ATP 70 μM, 28° C. 30 min; read-out: CDK7/Cyclin H/MAT1 IC50
T2 construct: purchased Millipore 14-476M
Description: (§2) CDK7/CyclinH/MAT1 kinase inhibitory activity (IC50): 5 μl of various dilutions of test compound in 1× kinase buffer (20 mM HEPES, pH 7.5, 10 mM MgCl2, 2 mM DTT and 0.01% Triton X-100) was mixed with 10 μL of CDK7/CyclinH/MAT1 (Millipore, 14-476M #, final concentration 12.5 nM in 1× Kinase buffer) in 384 plates and incubated at room temperature for 10 min. To initiate each reaction, 10 μL of peptide solution containing fluorescently-labeled-peptide CTD3 (5-FAM-[…], GL, SY346885 #, final concentration 3000 nM) and ATP (final concentration 70 μM) in 1× Kinase buffer was added to each of the wells containing test compound and CDK7/CyclinH/MAT1 mixture. The reaction is then allowed to proceed at 28° C. for 30 min and terminated by the addition of 25 μL stop buffer (100 mM HEPES pH 7.5, 50 mM EDTA, 0.2% Coating Reagent #3 (Perkin Elmer, 760050 #) and 0.015% Brij-35).
as §1, with “the phosphoiylated” for “the phosphorylated”, “peptide CTD3” for “peptide 18”

CDK9/CyclinT1 = molecular target: T3, CDK9/CyclinT1 (Homo sapiens, UniProt P50750); experiment: CDK9/CyclinT1 kinase inhibitory activity (Caliper mobility shift); details: enzyme 12.5 nM, ATP 10M, 28° C. 30 min; read-out: CDK9/Cyclin T1 IC50
T3 construct: purchased Millipore 14-685M
Description: as §2, with “CDK9/CyclinT1” for “CDK7/CyclinH/MAT1”, “14-685M” for “14-476M”, “fluorescently-labeled -peptide” for “fluorescently-labeled-peptide”, “[…])” for “70 μM)”
as §1, with “CTD3” for “18”

T2 sequence (P50613 whole entry): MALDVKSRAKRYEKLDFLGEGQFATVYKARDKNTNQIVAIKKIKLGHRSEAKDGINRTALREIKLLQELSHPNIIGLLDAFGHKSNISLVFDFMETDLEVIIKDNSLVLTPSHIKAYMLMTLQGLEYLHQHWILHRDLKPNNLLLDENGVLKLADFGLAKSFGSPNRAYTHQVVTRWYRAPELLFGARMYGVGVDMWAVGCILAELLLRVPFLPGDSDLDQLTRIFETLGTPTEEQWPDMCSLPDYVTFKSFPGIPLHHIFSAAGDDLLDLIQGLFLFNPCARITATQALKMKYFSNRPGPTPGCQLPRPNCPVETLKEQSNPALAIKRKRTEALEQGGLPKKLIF
T2 sequence (P51946 whole entry partner): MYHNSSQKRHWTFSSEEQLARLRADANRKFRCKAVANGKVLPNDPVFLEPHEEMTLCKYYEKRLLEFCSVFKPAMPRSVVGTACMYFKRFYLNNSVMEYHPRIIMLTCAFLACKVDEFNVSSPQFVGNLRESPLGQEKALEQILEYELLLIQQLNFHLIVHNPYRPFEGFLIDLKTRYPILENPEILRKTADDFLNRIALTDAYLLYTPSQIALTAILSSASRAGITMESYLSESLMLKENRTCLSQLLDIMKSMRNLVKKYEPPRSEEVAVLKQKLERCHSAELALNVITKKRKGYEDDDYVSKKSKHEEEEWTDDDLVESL
T2 sequence (P51948 whole entry partner): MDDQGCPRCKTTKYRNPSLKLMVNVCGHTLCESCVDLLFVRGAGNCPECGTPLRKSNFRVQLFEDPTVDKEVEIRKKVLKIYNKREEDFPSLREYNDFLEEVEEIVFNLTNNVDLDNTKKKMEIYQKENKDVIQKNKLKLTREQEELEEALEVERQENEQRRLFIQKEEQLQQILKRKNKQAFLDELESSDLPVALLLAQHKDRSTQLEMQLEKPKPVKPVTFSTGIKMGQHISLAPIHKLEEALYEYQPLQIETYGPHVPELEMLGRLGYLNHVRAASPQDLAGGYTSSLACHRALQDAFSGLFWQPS
T3 sequence (P50750 whole entry): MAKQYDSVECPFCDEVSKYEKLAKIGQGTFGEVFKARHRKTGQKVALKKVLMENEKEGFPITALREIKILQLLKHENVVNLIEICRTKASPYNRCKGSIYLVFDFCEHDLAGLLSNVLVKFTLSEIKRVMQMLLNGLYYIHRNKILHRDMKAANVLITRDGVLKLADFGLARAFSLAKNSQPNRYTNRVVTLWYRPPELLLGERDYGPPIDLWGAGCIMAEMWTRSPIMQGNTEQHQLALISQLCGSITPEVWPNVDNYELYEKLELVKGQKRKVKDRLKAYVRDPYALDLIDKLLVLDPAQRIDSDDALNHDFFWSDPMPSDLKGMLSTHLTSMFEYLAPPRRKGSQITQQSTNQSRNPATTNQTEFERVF
T3 sequence (O60563 whole entry partner): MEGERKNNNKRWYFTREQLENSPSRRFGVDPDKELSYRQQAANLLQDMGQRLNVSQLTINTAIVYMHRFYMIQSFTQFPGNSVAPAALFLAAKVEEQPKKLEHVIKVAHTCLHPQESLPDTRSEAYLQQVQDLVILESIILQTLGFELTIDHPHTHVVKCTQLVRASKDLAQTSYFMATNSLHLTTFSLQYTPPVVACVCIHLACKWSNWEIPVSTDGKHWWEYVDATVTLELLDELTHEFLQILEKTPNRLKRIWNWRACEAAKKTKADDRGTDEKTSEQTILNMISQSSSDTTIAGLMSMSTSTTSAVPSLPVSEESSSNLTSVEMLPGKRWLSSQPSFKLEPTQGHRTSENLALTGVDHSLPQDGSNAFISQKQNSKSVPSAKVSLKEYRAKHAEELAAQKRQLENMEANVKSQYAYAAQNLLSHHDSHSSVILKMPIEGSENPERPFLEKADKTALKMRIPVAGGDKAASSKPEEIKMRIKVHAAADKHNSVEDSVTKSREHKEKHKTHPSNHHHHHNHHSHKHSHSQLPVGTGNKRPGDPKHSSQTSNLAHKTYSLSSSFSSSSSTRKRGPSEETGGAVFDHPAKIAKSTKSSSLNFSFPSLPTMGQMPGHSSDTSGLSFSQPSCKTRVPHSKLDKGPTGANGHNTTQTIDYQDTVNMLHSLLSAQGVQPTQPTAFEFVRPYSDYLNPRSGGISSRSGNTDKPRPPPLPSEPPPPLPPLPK
T1 sequence (P06493 whole entry): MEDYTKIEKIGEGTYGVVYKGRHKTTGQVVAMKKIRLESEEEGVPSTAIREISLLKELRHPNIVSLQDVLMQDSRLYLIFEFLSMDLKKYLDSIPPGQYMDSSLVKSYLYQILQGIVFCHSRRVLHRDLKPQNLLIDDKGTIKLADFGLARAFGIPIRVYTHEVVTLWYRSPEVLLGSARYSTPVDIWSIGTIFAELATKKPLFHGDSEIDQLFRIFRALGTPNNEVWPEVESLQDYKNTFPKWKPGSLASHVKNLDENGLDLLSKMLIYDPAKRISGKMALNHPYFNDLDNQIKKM
T1 sequence (P14635 whole entry partner): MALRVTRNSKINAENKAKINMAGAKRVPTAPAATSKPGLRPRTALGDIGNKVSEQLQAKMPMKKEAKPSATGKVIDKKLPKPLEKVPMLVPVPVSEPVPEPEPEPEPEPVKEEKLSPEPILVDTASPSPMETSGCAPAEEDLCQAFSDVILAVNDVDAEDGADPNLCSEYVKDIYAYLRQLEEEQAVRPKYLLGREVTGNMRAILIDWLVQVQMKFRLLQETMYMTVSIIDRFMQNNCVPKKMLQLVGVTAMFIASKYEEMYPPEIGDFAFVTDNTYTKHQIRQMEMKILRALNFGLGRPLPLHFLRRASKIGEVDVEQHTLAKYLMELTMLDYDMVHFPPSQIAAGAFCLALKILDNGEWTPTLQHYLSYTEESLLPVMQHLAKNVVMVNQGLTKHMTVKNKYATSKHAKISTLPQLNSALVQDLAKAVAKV

Row | SMILES | IC50 (CDK1/CyclinB) | IC50 (CDK7/CyclinH/MAT1) | IC50 (CDK9/CyclinT1)
1 | Cc1nc2c(F)cc(-c3nc(N[C@@H]4CCOC[C@H]4O)ncc3F)cc2c2c1CC1(CC1)NC2 [Example 65] | 100 to 1000 nM | 100 to 1000 nM | 100 to 1000 nM
2 | [2H]c1nc2c(F)cc(-c3nc(N[C@@H]4CCOC[C@H]4O)ncc3C)cc2c2c1CC1(CC1)NC2 [Example 67] | ≥ 1000 nM | ≥ 1000 nM | 100 to 1000 nM
3 | [2H]c1nc(N[C@@H]2CCOC[C@H]2O)nc(-c2cc(F)c3nc([2H])c4c(c3c2)CNC2(CC2)C4)c1Cl [Example 68] | 100 to 1000 nM | 100 to 1000 nM | 100 to 1000 nM
4 | [2H]c1nc(N[C@@H]2CCOC[C@H]2O)nc(-c2cc(F)c3nc(C)c(C(C)(C)O)cc3c2)c1F [Example 83] | 100 to 1000 nM | 100 to 1000 nM | 100 to 1000 nM
5 | [2H]c1nc2c(F)cc(-c3nc(N[C@@H]4CCOC[C@H]4O)ncc3F)cc2c(C)c1C(C)(C)O [Example 94] | 100 to 1000 nM | 10 to 100 nM | 100 to 1000 nM
6 | Cc1nc2c(F)cc(-c3nc(N[C@@H]4CCOC[C@H]4O)ncc3Cl)cc2c2c1CC(C)(C)NC2 [Example 98] | ≥ 1000 nM | ≥ 1000 nM | 100 to 1000 nM
7 | [2H]c1nc2c(F)cc(-c3nc(N[C@@H]4CCOC[C@H]4O)ncc3Cl)cc2c2c1CC(C)(C)NC2 [Example 100] | 100 to 1000 nM | 100 to 1000 nM | 10 to 100 nM
8 | [2H]c1nc2c(F)cc(-c3nc(N[C@@H]4CCOC[C@H]4O)ncc3C)cc2c2c1CC(C)(C)NC2 [Example 102] | ≥ 1000 nM | ≥ 1000 nM | 100 to 1000 nM
9 | CC1(C)Cc2cnc3c(F)cc(-c4ccnc(N[C@@H]5CCOC[C@H]5O)n4)cc3c2CN1 [Example 107] | 100 to 1000 nM | 100 to 1000 nM | 100 to 1000 nM
